Assay results published in patent publication US6391907B1, “Indoline derivatives” (American Home Products Corporation, priority 1999, dated 2002).
Values joined by “and” are separate entries in the source; they are usually repeats but may differ in a detail not shown here. Identical values can stand only once.

Test system: rat uterine decidualization
Assay: Rat decidualization assay
Assay type: in vivo
Conditions: @ 3 mg/kg; rat decidualization, antiprogestational mode
Method: 1. Rat Decidualization Assay
The animals are treated once daily for seven days.
Uteri are removed and trimmed of fat.
Decidual response: [(D-C)/C]×100%
With `Cc1cc(C#N)sc1-c1ccc2c(c1)C1(CCCC1)C(=O)N2` [Example 73] the “Decid. IC50 mg/kg” value was 50% @ 3.

Same assay, conditions: @ 3 mg/kg; rat decidualization, antiprogestational mode; read-out: Decid. IC50 mg/kg
In the case of `N#Cc1cccc(-c2ccc3c(c2)C2(CCCC2)C(=O)N3)c1` [Example 77, 5′-(3-Cyanophenyl)-spiro[cyclopentane-1,3′-[3H]indol]-2′(1′H)-one], the inhibition in vivo at 3 mg/kg is reported as 60%. `N#Cc1cc(F)cc(-c2ccc3c(c2)C2(CCCC2)C(=O)N3)c1` [Example 80, 5′-(3-Cyano-5-fluorophenyl)-spiro[cyclopentane-1,3′-[3H]indol]-2′(1′H)-one] showed an inhibition in vivo at 3 mg/kg of 70%.

Same assay, conditions: @ 10 mg/kg; rat decidualization, antiprogestational mode; read-out: Decid. IC50 mg/kg
With `N#Cc1cccc(-c2ccc3c(c2)C2(CCCCC2)C(=O)N3)c1` [Example 47] the inhibition in vivo at 10 mg/kg was 50%.

Same assay, conditions: p.o.; half-maximal decrease in EC50 progesterone induced decidual response, rats
In the case of `CC#C[C@]1(O)CC[C@H]2[C@@H]3CCC4=CC(=O)CCC4=C3[C@@H](c3ccc(N(C)C)cc3)C[C@@]21C` [RU486], the IC50 is reported as 0.21 mg/kg and 0.14 mg/kg.

Same assay, conditions: s.c.; half-maximal increase in decidual response (uterine wet weight), ovariectomized rats; individual studies
In the case of `C#C[C@]1(O)CC[C@H]2[C@@H]3CCC4=CC(=O)CC[C@@H]4[C@H]3C(=C)C[C@@]21CC` [3-Ketodesogestrel], the EC50 is reported as 0.10 mg/kg and 0.06 mg/kg and 0.11 mg/kg. For `C#C[C@]1(O)CC[C@H]2[C@@H]3CCC4=CC(=O)CC[C@@H]4[C@H]3CC[C@@]21CC` [Levonorgestrel], the EC50 was 0.08 mg/kg and 0.12 mg/kg and 0.09 mg/kg (2×).

Test system: not given
Assay: not given
Conditions: not given
Compound `N#Cc1cc(-c2ccc3c(c2)C2(CCCC2)C(=O)N3)ccc1F` has a melting point of 264 to 266 °C. With `O=C1Cc2cc(-c3cccc([N+](=O)[O-])c3)ccc2N1` [Example 1, 5-(3-Nitro-phenyl)-1,3-dihydro-indol-2-one] the melting point was 269 °C. For `CC1(C)C(=O)Nc2ccc(-c3cccc(Cl)c3)cc21` [Example 4, 5-(3-Chloro-phenyl)-3,3-dimethyl-1,3dihydro-indol-2-one], the melting point was 188 to 189 °C. `CCC1C(=O)Nc2ccc(-c3cccc(Cl)c3)cc21` (stereo not drawn) [Example 6, 5-(3-Chloro-phenyl)-3-ethyl-1,3dihydro-indol-2-one] showed a melting point of 118 to 120 °C. Work on `CCC1(CC)C(=O)Nc2ccc(-c3cccc(Cl)c3)cc21` [Example 7, 5-(3-Chloro-phenyl)-3,3-diethyl-1,3-dihydro-indol-2-one] yielded a melting point of 195 to 197 °C. With `CC#CC1(OC)C(=O)Nc2ccc(-c3cccc(Cl)c3)cc21` (stereo not drawn) [Example 9, 5-(3-Chloro-phenyl)-3-methoxy-3-prop-1-ynyl-1,3-dihydro-indol-2-one] the melting point was > 190 °C (dec.). For `O=C1Cc2cc(-c3cccc(Cl)c3)ccc2N1` [Example 10, 5-(3-Chloro-phenyl)-1,3-dihydro-indol-2-one], the melting point was 169 to 171 °C. Compound `O=C1Nc2ccc(-c3cccc(Cl)c3)cc2C12OCCO2` [Example 11, 5′-(3-Chlorophenyl)spiro[1,3-dioxolane-2,3′-[3H]indol]-2′(1′H)-one] has a melting point of 159 to 161 °C. Compound `O=C1Nc2ccc(-c3cccc(Cl)c3)cc2C12OCCCO2` [Example 12, 5′-(3-Chlorophenyl)spiro[1,3-dioxane-2,3-[3H]indol]-2′(1′H)-one] has a melting point of 242 to 244 °C. In the case of `O=C1Nc2ccc(-c3cccc([N+](=O)[O-])c3)cc2C12CCCC2` [Example 13, 5′-(3-nitrophenyl)spiro[cyclopentane-1,3′-[3H]indol]2′(1′H)-one], the melting point is reported as 238 to 240 °C. In the case of `O=C1Nc2ccc(-c3ccc(F)c(Cl)c3)cc2C12CCCCC2` [Example 20, 5′-(3Chloro-4-fluorophenyl)spiro[cyclohexane-1,3′-[3H]indol]-2′(1′H)-one], the melting point is reported as 188 to 189 °C. Work on `O=C1Nc2ccc(-c3cccc(F)c3)cc2C12CCCCC2` [Example 21, 5′-(3-Fluorophenyl)spiro[cyclohexane-1,3′-[3H]indol]-2′(1′H)-one] yielded a melting point of 171 to 172 °C. For `O=C1Nc2ccc(-c3cc(F)cc(F)c3)cc2C12CCCCC2` [Example 22, 5′-(3,5-Difluorophenyl)spiro[cyclohexane1,3′-[3H]indol]-2′(1′H)-one], the melting point was 180 to 183 °C. `O=C1Nc2ccc(-c3cc(F)cc(Cl)c3)cc2C12CCCCC2` [Example 27, 5′-(3-Chloro-5-fluorophenyl)spiro[cyclohexane-1,3′-[3H]indol]-2′(1′H)-one] gave a melting point of 178 to 180 °C. `O=C1Nc2ccc(-c3cccc([N+](=O)[O-])c3)cc2C12CCCCC2` [Example 30, 5′-(3-Nitrophenyl)spiro[cyclohexane-1,3′-[3H]indol]-2′(1′H)-one] gave a melting point of 196 to 198 °C. `N#Cc1csc(-c2ccc3c(c2)C2(CCCCC2)C(=O)N3)c1` [Example 38, 5-(1′,2′-Dihydro-2′-oxospiro[cyclohexane-1,3′-[3H]indol]-5′-yl)-thiophene-3-carbonitrile] showed a melting point of 188 to 190 °C. `N#Cc1coc(-c2ccc3c(c2)C2(CCCCC2)C(=O)N3)c1` [Example 40, 5-(1′,2′-Dihydro-2′-oxospiro[cyclohexane-1,3′-[3H]indol]-5′-yl)-3-furancarbonitrile] gave a melting point of 243 to 245 °C. `Cn1c(-c2ccc3c(c2)C2(CCCCC2)C(=O)N3)ccc1[N+](=O)[O-]` [Example 45, 5′-(5-Nitro-1-methyl-pyrrol-2-yl)spiro[cyclohexane-1,3′-[3H]indol]-2′(1′H)-one] gave a melting point of 210 °C. With `O=C1Nc2ccc(-c3cccc4[nH]ccc34)cc2C12CCCCC2` [Example 46, 5′-(1H-Indol-4-yl)spiro[cyclohexane-1,3′-[3H]indol]-2′(1′H)-one] the melting point was 211 to 213 °C. `N#Cc1cccc(-c2ccc3c(c2)C2(CCCCC2)C(=O)N3)c1` [Example 47] gave a melting point of 190 to 191 °C. `N#Cc1cc(F)cc(-c2cc(Br)c3c(c2)C2(CCCCC2)C(=O)N3)c1` [Example 51, 3-(7′-Bromo-1′,2′-dihydro-2′-oxospiro[cyclohexane-1,3′-[3H]indol]-5′-yl)-5-fluoro-benzonitrile] gave a melting point of 217 °C. In the case of `N#Cc1cc(F)cc(-c2cc([N+](=O)[O-])c3c(c2)C2(CCCCC2)C(=O)N3)c1` [Example 52, 3-(7′-Nitro-1′,2′-dihydro-2′-oxospiro[cyclohexane-1,3′-[3H]indol]-5′-yl)-5-fluoro-benzonitrile], the melting point is reported as 196 °C. For `N#Cc1cc(F)cc(-c2cc(N)c3c(c2)C2(CCCCC2)C(=O)N3)c1` [Example 53, 3-(7′-Amino-1′,2′-dihydro-2′-oxospiro[cyclohexane-1,3′-[3H]indol]-5′-yl)-5-fluoro-benzonitrile], the melting point was 241 to 243 °C. `Cc1c(-c2ccc3c(c2)C2(CCCCC2)C(=O)N3)sc2ccc(Cl)cc12` [Example 58, 5′-(5-Chloro-3-methylbenzo[b]thien-2-yl)spiro[cyclo-hexane-1,3′-[3H]indol]-2′(1′H)-one] gave a melting point of 256 to 258 °C. In the case of `N#Cc1ccc(-c2ccc3c(c2)C2(CCCCC2)C(=O)N3)cc1F` [Example 63, 5′-(4-Cyano-3-fluorophenyl)-spiro[cyclohexane-1,3′-[3H]indol]-2′(1′H)-one], the melting point is reported as 258 to 260 °C. Compound `CC1(C)C(=O)Nc2ccc(-c3ccc(F)c(Cl)c3)cc21` [Example 66, 5-(3-Chloro-4-fluoro-phenyl)-3,3-dimethyl1,3-dihydro-indol-2-one] has a melting point of 206.5 to 207.8 °C. For `CC1(C)C(=O)Nc2ccc(-c3cccc(C#N)c3)cc21` [Example 67, 3-(3,3-Dimethyl-2-oxo-2,3-dihydro-1H-indol-5-yl)-benzonitrile], the melting point was 200.2 to 202 °C. In the case of `Cc1cc(C#N)sc1-c1ccc2c(c1)C(C)(C)C(=O)N2` [Example 69, 5(3,3-Dimethyl-2-oxo-2,3dihydro-1H-indol-5-yl)-4methyl thiophene-2-carbonitrile], the melting point is reported as 192.3 to 193 °C. `CC1(C)C(=O)Nc2ccc(-c3cc(F)cc(Cl)c3)cc21` [Example 70, 5-(3-Chloro-5-fluoro-phenyl)-3,3-dimethyl-1,3-dihydro-indol-2-one] gave a melting point of 205.9 to 206.8 °C. `CC1(C)C(=O)Nc2ccc(-c3cc(F)cc([N+](=O)[O-])c3)cc21` [Example 71, 5-(3-Fluoro-5-nitro-phenyl)-3,3-dimethyl-1,3-dihydro-indol-2-one] showed a melting point of 231.2 to 232.7 °C. `CC1(C)C(=O)Nc2ccc(-c3coc(C#N)c3)cc21` [Example 72, 4-(3,3-Dimethyl-2-oxo-2,3-dihydro-1H-indol-5-yl)-furan-2-carbonitrile] gave a melting point of 199.6 to 201.4 °C. For `O=C1Nc2ccc(-c3ccc(F)c(Cl)c3)cc2C12CCCC2` [Example 76, 5′-(3-Chloro-4fluorophenyl)-spiro[cyclopentane-1,3′-[3H]indol]-2′(1′H)-one], the melting point was 202 to 204 °C. For `N#Cc1cccc(-c2ccc3c(c2)C2(CCCC2)C(=O)N3)c1` [Example 77, 5′-(3-Cyanophenyl)-spiro[cyclopentane-1,3′-[3H]indol]-2′(1′H)-one], the melting point was 217 to 219 °C. `CC1(C)C(=O)Nc2ccc(-c3ccc([N+](=O)[O-])s3)cc21` [Example 83, 3,3-Dimethyl-5-(5-nitro-thiophene-2-yl)-1,3-dihydro-indol-2-one] showed a melting point of 223 to 225 °C. `CC(C)(C)OC(=O)n1cccc1-c1ccc2c(c1)C(C)(C)C(=O)N2` [Example 84, 2-(3,3-Dimethyl-2-oxo-2,3-dihydro-1H-indol-5yl)-pyrrole-1-carboxylic acid tert-butyl ester] gave a melting point of 168.4 to 170.2 °C. With `CC1(C)C(=O)Nc2ccc(C3([N+](=O)[O-])C=CC=N3)cc21` (stereo not drawn) [Example 85, 2-(3,3-Dimethyl-2-oxo-2,3-dihydro-1H-indol-5-yl)-2-nitro-pyrrole] the melting point was 293.9 to 294.2 °C (dec.). `CC1(C)C(=O)Nc2ccc(-c3ccc(C#N)s3)cc21` [Example 86, 5-(3,3-Dimethyl-2-oxo-2,3-dihydro-1H-indol-5-yl)-thiophene2-carbonitrile] gave a melting point of 255 to 256 °C. For `CC1(C)C(=O)Nc2ccc(-c3cccc(C#N)c3F)cc21` [Example 87, 3(3,3-Dimethyl-2-oxo-2,3-dihydro-1H-indol-5-yl)-2-fluoro-benzonitrile], the melting point was 270 to 272 °C.
